Assays:
MSI1 RRM1 = biological target: T1, MSI1 RRM1 (Homo sapiens, UniProt O43347); test: Fluorescence polarization (FP) competition assay with fluorescein-labeled RNA; type: binding; conditions: MSI1 RRM1
T1 sequence (O43347 20-110 limits assumed): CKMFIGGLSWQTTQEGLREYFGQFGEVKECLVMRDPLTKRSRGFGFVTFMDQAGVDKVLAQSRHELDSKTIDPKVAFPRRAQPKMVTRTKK
From the text: Figure 1: The hotspot mimicry approach. […] (A) The structure of the MSI1 / RNA complex. The RNA (sticks) wraps around the protein (spheres). Two adjacent bases, A106 and G107 (magenta), are buried in a shallow pocket on the protein surface. (B) An interaction map is generated from the RNA in the complex, by collecting deeply buried bases (magenta) and atoms involved in intermolecular hydrogen bonds (acceptors shown in yellow, donors in green). […] Positive values indicate diminished binding when a given base is replaced with an abasic site, showing that A106 and G107 contribute more than the other nearby bases to the binding affinity of this interaction. (E) The hotspot pharmacophore serves as a template for ligand-based screening, searching for compounds that would mimic the three-dimensional features of the pharmacophore. The screen led to the identification of compound R12, which mimics the geometry of the rings and provides three of the four desired hydrogen bonding groups. (F) R12 competes with fluorescein-labeled RNA for MSI1 binding, as observed through a fluorescence polarization assay. […] (G) Superposition of the hotspot pharmacophore back onto the protein structure illustrates the interactions that should be captured by an ideal ligand: stacking against three aromatic sidechains, and four intermolecular hydrogen bonds.
We applied our “hotspot mimicry” approach to the structure of Musashi-1 RRM1 bound to cognate RNA [54], and found a single hotspot pharmacophore derived from an adjacent pair of buried bases, Adenine106 and Guanine107 (Figure 1a). […] This pharmacophore captures both the aromatic stacking and the hydrogen bonding of the RNA hotspot through its inclusion of ring moieties and donor/acceptor positions, respectively (Figure 1c). To test whether these two particular bases indeed serve as a hotspot of the MSI1 RRM1 / RNA interaction, we used a fluorescence polarization (FP) competition assay (see Supporting Methods) to measure the binding affinity of RNA variants that maintained the backbone but lacked individual bases. […] In contrast, introduction of an abasic site at other nearby positions affected binding much less. Confirmation that A106 and G107 serve as hotspot bases of this interaction thus provided experimental evidence supporting the pharmacophore selection from our computational approach.

hnRNP A1 RRM1 domain = biological target: T2, hnRNP A1 RRM1 domain (Homo sapiens, UniProt P09651); test: FP competition assay with the same fluorescently-labeled RNA; type: binding
T2 construct: we expressed and purified hnRNP A1’s RRM1 domain; made in house

PC9 cells [1] = test: CellTiter-Blue cell viability, PC9; type: cell-based, human; conditions: PC9, 3 days, dose-response
Procedure: Figure 7: Cellular characterization of MSI2 inhibition by R12–8–44–3. (A) Quantification of mRNA immunoprecipitation (RIP) results. Cells were treated with 10 μM of the indicated compounds for 8 hours. After immunoprecipitation with anti-MSI2, mRNA targets were quantified. The amount of each target mRNA in the pulldown was calculated relative to the input, and results from all targets were normalized to PTP4A1. Treating cells with R12–8–44–3 disrupted the interaction with all four cognate mRNAs (PTP4A, SMAD3, EGFR, and MSI2). Data are presented as the average ± S.E.M. from at least 3 independent replicates. […] Cells were treated with indicated compounds at two concentrations (5 μM and 20 μM) for 48 hours, then protein levels of relevant MSI2 targets were determined (EGFR, SMAD3, and MSI2). One representative image is shown; quantification is presented as the average ± S.E.M. from at least 3 independent replicates, normalized first to beta-actin and then to DMSO-treated cells. (C) Cell viability dose-response quantified by CellTiter-Blue after 3 days (left) and cell proliferation with 10μM of compounds quantified by clonogenic assay after 7 days (right). […] (D) Cell viability quantified by clonogenic assay of PC9 cell line after 7-day treatment with 2 nM osimertinib (osi alone), osimertinib with 10 μM R12–8–44–3, or osimertinib with 10 μM R12-neg. […]

PC9 cells [2] = test: CellTiter-Blue, combination with osimertinib, PC9; type: cell-based, human; conditions: PC9, 3-day treatment, osimertinib with 10 μM compound vs osimertinib alone
From the text: With respect to non-small cell lung cancer (NSCLC) specifically, overexpression of MSI2 has been identified as a mechanism underlying resistance to inhibitors of EGFR – and more importantly, depletion of MSI2 by RNA knockdown increased sensitivity to the third-generation EGFR inhibitor osimertinib both in vitro and in vivo [73, 74]. Despite lack of sensitivity to R12–8–44–3 alone, we therefore hypothesized that R12–8–44–3 would sensitize PC9 cells (an EGFR-mutant lung cancer cell line) to osimertinib.

MSI2 = MSI2 (Homo sapiens, UniProt Q96DH6); test: mRNA immunoprecipitation (RIP) with anti-MSI2 in PC9 cells; type: cell-based; design: endogenous in cells; host or cells: PC9; conditions: PC9, 10 μM, 8 hours
From the text: Among previously described targets of MSI2 are PTP4A, SMAD3, EGFR, and MSI2 itself. To test for disruption of MSI2 with these cognate mRNAs upon treatment with R12–8–44–3, we used mRNA immunoprecipitation (RIP): we used an anti-MSI2 antibody to immunoprecipitate MSI2, then reverse transcribed and analyzed by qPCR to determine the amount of each specific mRNA that was bound to MSI2. As an important control to ensure that the resulting mRNA was indeed brought down by MSI2, we additionally verified that using a negative control antibody (instead of anti-MSI2) brought with it 100-fold less of each target mRNA (Figure S10). As a separate negative control, GAPDH mRNA was also quantified in the context of these studies (since GAPDH is not thought to be a target of MSI2).
PC9 cells were then treated with 10 μM of each compound for 8 hours and then analyzed by RIP.
Figure 7: Cellular characterization of MSI2 inhibition by R12–8–44–3. (A) Quantification of mRNA immunoprecipitation (RIP) results. […] After immunoprecipitation with anti-MSI2, mRNA targets were quantified. The amount of each target mRNA in the pulldown was calculated relative to the input, and results from all targets were normalized to PTP4A1. […] Cells were treated with indicated compounds at two concentrations (5 μM and 20 μM) for 48 hours, then protein levels of relevant MSI2 targets were determined (EGFR, SMAD3, and MSI2). […]

Chain of MSI2 (Q96DH6 whole entry): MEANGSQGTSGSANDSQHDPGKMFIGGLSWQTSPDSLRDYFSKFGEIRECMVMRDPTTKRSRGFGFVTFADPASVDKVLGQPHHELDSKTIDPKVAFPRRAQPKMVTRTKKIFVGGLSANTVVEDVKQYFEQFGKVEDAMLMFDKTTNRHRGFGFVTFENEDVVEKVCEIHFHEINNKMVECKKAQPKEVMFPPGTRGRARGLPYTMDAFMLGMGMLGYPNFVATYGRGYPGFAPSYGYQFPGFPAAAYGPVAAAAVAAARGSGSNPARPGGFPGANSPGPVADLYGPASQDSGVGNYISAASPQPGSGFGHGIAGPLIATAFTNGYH
T2 sequence (P09651 14-97 limits assumed): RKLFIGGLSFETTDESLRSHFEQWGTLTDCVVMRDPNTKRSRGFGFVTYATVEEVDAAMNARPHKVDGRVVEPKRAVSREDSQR

Cc1cc(C(=O)OCc2nc(N)c3c(C)c(C)sc3n2)c(N)cc1F [R12–8–44–3]
improvement in potency over parent compound (MSI1 RRM1; FP assay): 2 fold | IC50 (MSI1 RRM1; FP competition): 9.7 µM | inhibition of hnRNP A1 RNA binding (hnRNP A1 RRM1 domain): does not inhibit | cell viability (CellTiter-Blue) (PC9 cells [1]): no effect on cell growth/survival | cell viability (CellTiter-Blue) in combination with osimertinib (PC9 cells [2]): small but statistically significant decrease in cell viability | amount of target mRNA associated with MSI2 (PTP4A, SMAD3, EGFR, MSI2) (MSI2): statistically significant reduction in the amount of mRNA associated with MSI2
